# “Also recorded” adds a separate entry of the source.
# T1: yeast MVK (Saccharomyces cerevisiae, UniProt P07277)
# T1 construct: 10xHis tag with factor Xa site (pET-16b leader); made in house; host or cells: E. coli BL21(DE3) pLysS
# T1 sequence (P07277 1-443): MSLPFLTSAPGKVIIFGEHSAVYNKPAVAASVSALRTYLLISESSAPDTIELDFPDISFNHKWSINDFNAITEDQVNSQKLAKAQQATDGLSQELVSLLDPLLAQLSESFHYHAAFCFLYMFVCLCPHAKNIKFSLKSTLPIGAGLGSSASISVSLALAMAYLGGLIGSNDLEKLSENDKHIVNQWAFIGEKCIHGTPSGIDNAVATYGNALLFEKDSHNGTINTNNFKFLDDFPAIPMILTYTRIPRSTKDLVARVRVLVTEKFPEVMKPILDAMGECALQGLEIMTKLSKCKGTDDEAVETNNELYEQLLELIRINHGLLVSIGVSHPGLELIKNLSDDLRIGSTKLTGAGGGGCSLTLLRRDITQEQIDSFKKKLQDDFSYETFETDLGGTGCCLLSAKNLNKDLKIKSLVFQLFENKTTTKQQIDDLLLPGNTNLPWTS
# T2: MVK from the archaeon Methanococcus jannaschii (Methanocaldococcus jannaschii, UniProt Q58487)
# T2 sequence (Q58487 1-312): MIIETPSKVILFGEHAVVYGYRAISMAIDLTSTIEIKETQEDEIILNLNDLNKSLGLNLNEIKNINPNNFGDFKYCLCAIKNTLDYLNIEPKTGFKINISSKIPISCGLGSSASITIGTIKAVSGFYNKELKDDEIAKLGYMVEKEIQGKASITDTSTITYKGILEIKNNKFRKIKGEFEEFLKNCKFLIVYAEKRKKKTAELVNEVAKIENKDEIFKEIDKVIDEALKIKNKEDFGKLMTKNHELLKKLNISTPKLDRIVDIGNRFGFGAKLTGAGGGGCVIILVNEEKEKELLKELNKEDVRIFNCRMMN
# T3: yeast mevalonate kinase (Saccharomyces cerevisiae, UniProt P07277)
# T3 construct: 10xHis tag with factor Xa site (pET-16b leader); made in house; host or cells: E. coli BL21(DE3) pLysS
# T3 sequence (P07277 1-443): T1 sequence (P07277 1-443)
# B1: yeast mevalonate kinase: mevalonate kinase from Saccharomyces cerevisiae, expressed in E. coli and purified to >95% (protein, UniProt P07277 1-443, looked up)
# Mevalonate kinase: T1 sequence (P07277 1-443)
# Tests used:
# S. pneumoniae MVK = experiment: Inhibition of MVK by diphosphomevalonate, two enzyme system (MVK plus PMK); format: biochemical, Streptococcus pneumoniae; conditions: 1 μM MVK, 1 μM PMK, diphosphomevalonate formed in situ
# Experimental: (§1) This experiment investigates the inhibitory effect of diphosphomevalonate and […] (IP) on MVK activity using MVK enzymes from S. pneumoniae, yeast, and M. mazei, respectively. […] All reactions were performed in 96-well plates and were monitored by absorbance at 386 nm on a Molecular Devices Spectramax 190 UV-Vis 96-well spectrophotometer. […] All chemical reagents were purchased from Sigma unless otherwise specified. Yeast and M. mazei MVK were obtained as described above and S. pneumoniae MVK and yeast phosphomevalonate kinase (PMK) were obtained as previously described (Andreassi et al., Biochemistry, 43:16461-66, 2004) from pDW02 in pET200D MVK (FIG. 142).
# yeast MVK = target: T1, yeast MVK; experiment: as above; format: biochemical; conditions: 1 μM MVK, 1 μM PMK, diphosphomevalonate formed in situ
# Experimental: as §1
# M. mazei MVK = experiment: Inhibition of MVK by diphosphomevalonate and IP, two enzyme system; format: biochemical, Methanosarcina mazei; conditions: 1 μM MVK; for Inhibition of M. mazei MVK by isopentenyl monophosphate: 100 μM
# Source text: This experiment investigates the inhibitory effect of diphosphomevalonate and […] (IP) on MVK activity using MVK enzymes from S. pneumoniae, yeast, and M. mazei, respectively. […] All chemical reagents were purchased from Sigma unless otherwise specified.
# human MVK polypeptide = human MVK polypeptide (Homo sapiens, UniProt Q03426); conditions: reported; cited from earlier work
# [1] = target: T2, MVK from the archaeon Methanococcus jannaschii; conditions: Huang et al. 1999; cited from earlier work
# yeast mevalonate kinase = target: T3, yeast mevalonate kinase; format: biochemical; conditions: for KMapp of yeast mevalonate kinase: other substrate saturating at 5 mM, 30° C.
# [2] = Flammability modeling (CAFT) and testing of isoprene; format: physicochemical
# Source text: Thus, computer modeling and experimental testing were used to determine the flammability limits of isoprene (such as isoprene in the presence of O2, N2, CO2, or any combination of two or more of the foregoing gases) in order to ensure process safety. The flammability envelope is characterized by the lower flammability limit (LFL), the upper flammability limit (UFL), the limiting oxygen concentration (LOC), and the limiting temperature. For a system to be flammable, a minimum amount of fuel (such as isoprene) must be in the presence of a minimum amount of oxidant, typically oxygen. The LFL is the minimum amount of isoprene that must be present to sustain burning, while the UFL is the maximum amount of isoprene that can be present. Above this limit, the mixture is fuel rich and the fraction of oxygen is too low to have a flammable mixture. The LOC indicates the minimum fraction of oxygen that must also be present to have a flammable mixture. […]
# Calculated adiabatic flame temperatures (CAFT) along with a selected limit flame temperature for combustion propagation were used to determine the flammability envelope for isoprene. […]
# The igniter was comprised of a 1.5 ohm nicrome coil and an AC voltage source on a timer circuit. Using an oscilloscope, it was determined that 34.4 VAC were delivered to the igniter for 3.2 seconds. […]
# [3] = about 1 atmosphere and about 60° F.; cited from earlier work
# Sequence of human MVK polypeptide (Q03426 whole entry): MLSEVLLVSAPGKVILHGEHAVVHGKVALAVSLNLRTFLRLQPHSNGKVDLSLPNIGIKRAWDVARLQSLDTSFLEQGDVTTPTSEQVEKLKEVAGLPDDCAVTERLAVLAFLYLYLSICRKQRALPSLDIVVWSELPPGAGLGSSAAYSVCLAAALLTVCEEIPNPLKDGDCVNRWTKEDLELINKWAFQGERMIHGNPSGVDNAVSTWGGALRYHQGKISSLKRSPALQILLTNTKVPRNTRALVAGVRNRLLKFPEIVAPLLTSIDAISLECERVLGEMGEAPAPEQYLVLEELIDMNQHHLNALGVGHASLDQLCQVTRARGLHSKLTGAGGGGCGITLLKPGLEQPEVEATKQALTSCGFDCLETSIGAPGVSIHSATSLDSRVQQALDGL
molecule,measurement,setting,value
C[C@@](O)(CCOP(=O)(O)OP(=O)(O)O)CC(=O)O [diphosphomevalonate],Inhibition of S. pneumoniae MVK by diphosphomevalonate,S. pneumoniae MVK,inhibited
same,Inhibition of yeast MVK by diphosphomevalonate,yeast MVK,not inhibited; also recorded: Neither yeast MVK nor M. mazei MVK was inhibited
same,Inhibition of M. mazei MVK by diphosphomevalonate,"M. mazei MVK; PMK, diphosphomevalonate formed in situ",proceed to completion; also recorded: Neither yeast MVK nor M. mazei MVK was inhibited
"CC(C)=CCC/C(C)=C/COP(=O)(O)OP(=O)(O)O [GPP, geranyl diphosphate]",Ki for human MVK polypeptide,human MVK polypeptide,nanomolar range
same,Feedback inhibition of M. jannaschii MVK,[1],feedback inhibited
"Nc1ncnc2c1ncn2[C@@H]1O[C@H](COP(=O)(O)OP(=O)(O)OP(=O)(O)O)[C@@H](O)[C@H]1O [ATP, adenosine triphosphate]",KMapp of yeast mevalonate kinase,yeast mevalonate kinase,714 ± 49 µM
"CC(C)=CCC/C(C)=C/CC/C(C)=C/CO[P@@](=O)(O)OP(=O)(O)O (stereo in doubt) [FPP, farnesyl diphosphate]",Ki for human MVK polypeptide,human MVK polypeptide,nanomolar range
"C=CC(=C)C [isoprene, 2-methyl-1,3-butadiene]",limiting oxygen concentration (LOC),"[2]; isoprene, O2, N2, and CO2 mixture at 40° C. and 1 atmosphere",9.5 vol %
same,limiting temperature,[2]; lowest temperature at which combustion can propagate,about −54 °C
"C=C(C)CCOP(=O)(O)OP(=O)(O)O [IPP, isopentenyl diphosphate]",Inhibition of M. mazei MVK by isopentenyl monophosphate,M. mazei MVK,not inhibited
"C=C(C)CCOP(=O)(O)O [IP, isopentenyl monophosphate]",Inhibition of M. mazei MVK by isopentenyl monophosphate,M. mazei MVK,not inhibited
CCO [ethanol],LFL,[3],about 3.3 vol %
same,LOC,[3],about 8.7 vol %
"CC(C)=CCC/C(C)=C/CC/C(C)=C/CC/C(C)=C/COP(=O)(O)OP(=O)(O)O [GGPP, geranylgeranyl diphosphate]",Ki for human MVK polypeptide,human MVK polypeptide,nanomolar range
CC(O)(CCO)CC(=O)O (stereo not shown) [mevalonate],KMapp of yeast mevalonate kinase,yeast mevalonate kinase,131 ± 8 µM
B1,turnover number (kcat),yeast mevalonate kinase; yeast mevalonate kinase,38 ± 5 s⁻¹
